Residues, ends and D or L forms follow the SMILES beside them. *: point of attachment. X1 = C=Cc1c(C)c2cc3nc(c(C)c4nc(cc5[nH]c(cc1[nH]2)c(C)c5CC)C(C)=C4C(=O)O)[C@@H](CCC(=O)*)[C@@H]3C
Columns and labels:
[1] = Singlet oxygen generation (SOSG) under 670 nm laser after DTT treatment; settings: for Increase of singlet oxygen generation: 5 mM DTT, 4 hours, 670 nm laser 50 mW/cm^2; for Generation of singlet oxygen in the quenched state: DTT not treated or 2 μM DTT
Description: Singlet oxygen generation (SOG) was measured by the following method. The C-EGFR conjugate thus obtained was dissolved in PBS to be 2 μM, and then DTT-treated samples were mixed with 2 μM and 5 mM DTT, respectively, and the same amount of PBS was mixed in the buffer-treated group. The mixed solution (200 μl) was cultured at 37° C. for 4 hours. Subsequently, oxygen-saturated PBS including concentrated singlet oxygen sensor green (SOSG) was mixed and the final SOSG concentration was adjusted to 5 μM. Fluorescence intensity change of the SOSG was periodically measured using a 670 nm continuous wavelength laser device during the light irradiation (light irradiation dose: 50 mW/cm^2) of the sample.
In addition, in order to confirm the generation of singlet oxygen (SOG), the same method as in Example 2 was performed and analyzed.

[2] = Fluorescence recovery by reducing agent (DTT) treatment; settings: 5 mM DTT; for Increase of fluorescence intensity by DTT treatment: 4 hours, conjugate 2 μM in PBS, λEx 400 nm, λEm 665 nm
Description: The increase of fluorescence and reactive oxygen generation by reducing agent treatment was analyzed.
In the dithiothreitol (DTT) treatment sample, which is a reducing agent, 2 μM of a conjugate was mixed with 2 μM and 5 mM DTT, and the same amount of phosphate-buffered saline (PBS) was added to the buffer-treated group. The fluorescent intensity of the mixed solution (200 μl) was measured at intervals of 30 minutes for 4 hours (λEx. 400 nm, λEm. 665 nm).
Fluorescence recovery of the conjugate thus obtained by the reaction in response to a reducing agent present in a high concentration in cancer cells was performed and analyzed in the same manner as in Example 2. On the other hand, a sample prepared by dilution was put into a multifunctional microplate reader to obtain fluorescence spectrum (λEx. 400 nm, λEm. 620˜850 nm) results.
Meanwhile, in order to analyze the reactivity of the reducing agent/enzyme complex reaction type Ce4-CRRCW conjugate to the reducing agent, the conjugate was treated with reducing agents DTT 2 μM and 5 mM for 6 hours and put into a multifunctional microplate reader to obtain the fluorescence spectrum (λEx. 400 nm, λEm. 620˜850 nm) results. In order to analyze the reactivity to the enzyme, the conjugate was treated with cathepsins B, S, L, and S, or cathepsin B pretreated with cathepsin inhibitor E64 for 6 hours and put into a multifunctional microplate reader to obtain the fluorescence spectrum (λEx. 400 nm, λEm. 620˜850 nm) results. In order to analyze the reducing agent/enzyme complex reaction, 5 mM DTT and cathepsin B enzyme were treated together for 6 hours and put into a multifunctional microplate reader to obtain the fluorescence spectrum (λEx. 400 nm, λEm. 620˜850 nm) results.

[3] = test system: PCA-SMC cells; test: Photodynamic therapy efficacy, CCK-8 assay after 670 nm laser; type: cell-based, human; settings: 10 μM, 4 h treatment, washed
Description: In order to evaluate the efficacy of photodynamic therapy, PCA-SMC cells were put in a 1×10^3/well and MDA-MB-231 cells and MDA-MB-468 cells were put as much as 1×10^4/well in a 96-well plate, respectively, and were cultured for 24 hours to allow the cells to be adhered well. L-EGFR conjugates were prepared at concentrations of 0.1 μM, 0.5 μM, 1 μM, 2 μM, 5 μM and 10 μM, respectively, treated with cells, and then cultured for 4 hours. Thereafter, the conjugate that had not been absorbed into cells was washed and removed, and then irradiated with a 670 nm laser at an irradiation dose density of 50 mW/cm^2 for 6 minutes and 40 seconds. Thereafter, after further culturing in an incubator until the next day, the cytotoxicity was assessed by CCK-8 assay.

[4] = test system: HCC70 cells; test: Cell absorption and fluorescence activity, confocal laser microscope; type: cell-based, human; settings: 2 μM, 4 hours
Text: In the 8-well Lab-Tek chamber, 5×10^3 PCA-SMC cells and 5×10^4 HCC70 cells were put in each well.

[5] = test system: PCA-SMC cells; test: as above; type: cell-based, human; settings: 2 μM, 4 hours
Description: (§1) Thereafter, the existing medium was replaced with 200 μl of a fresh medium in which 2 μM the conjugate was dissolved, and the cells were cultured for 30 minutes, 1 hour, and 4 hours, respectively.

[6] = test system: HCC70 cells; settings: 0~10 μM, dark
Description: In the dark state without light, the C-EGFR conjugate of the present invention was treated with 0˜10 μM concentration in HCC70 cells and cytotoxicity was evaluated.

[7] = test system: HCC70 cells; test: Real-time observation of fluorescence quenching and recovery without washing (live cell imaging); type: cell-based, human; settings: no washing, images over 4 hours
Description: An experiment was conducted to verify whether a C-EGFR conjugate of the present invention in which fluorescence signal generation has been quenched from outside the target cell strongly generates fluorescence after the absorption of the C-EGFR conjugate into target cells. EGFR-overexpressing HCC70 cells were treated with the C-EGFR conjugate and free photosensitizer (Ce4), and then fluorescence images were obtained at regular time intervals without washing. The detailed method is provided as follows.
The existing medium was then replaced with 0.5 ml of fresh medium including the conjugate and the free photosensitizer. Thereafter, each of the near infrared light fluorescence images (λEx. 640±15 nm, λEm. 690±25 nm) were obtained at intervals of 15 minutes for 4 hours using the Live Cell Imaging System (Axio Observer Z1, Carl Zeiss, Germany) without washing the cells.

[8] = test system: trypsin enzyme; settings: after 4 hours, 37° C., PBS, λEm 665 nm
Description: 1 nmol of each of Ce4-RRWW and Ce4-RRWWW thus obtained was prepared and dissolved in a PBS solution. The trypsin enzyme was mixed with each […] of each conjugate and fluorescence changes were observed over time at 37° C.

[9] = 2 μM, PBS including 10% FBS, room temperature, 4 hours
Description: The L-EGFR conjugate of the present invention was mixed with PBS including 10% […], fetal bovine serum (FBS, Gibco, USA), respectively, and cultured, and the stability in the serum was evaluated. The final concentration of the conjugate in solution was adjusted to 2 μM. The solution was allowed to react at room temperature for 4 hours and then put in a multifunctional microplate reader (Safire 2, Tecan, Switzerland) to obtain a fluorescence spectrum (λEx. 400 nm) result.
The Ce4-RRW conjugate of the present invention was mixed with PBS including 10% of FBS and cultured to evaluate the stability in serum. The final concentration of the conjugate in solution was adjusted to 2 μM. The solution was allowed to react at room temperature for 4 hours and then put in a multifunctional microplate reader to obtain a fluorescence spectrum (λEx. 610 nm, λEm. 620˜850 nm) result.

[10] = test system: KB cells; settings: 2 μM
Description: KB cells per well were put in a 4-well Lab-Tek chamber per 2×10^5, and were cultured for 24 hours to allow the cells to be absorbed well. Thereafter, the existing medium was replaced with 500 μl of fresh medium in which the Ce4-RRW conjugate (2 μM) was dissolved, and then the cells were cultured for 4 hours.
Finally, the cells were washed three times with the culture medium, and then a near-infrared fluorescence image (λEx. 405 nm, λEm. 625˜754 nm) was obtained using a confocal laser microscope.
Experiments were performed to determine the intracellular location of the Ce4-RRW of the present invention. In the 8-well Lab-Tek chamber, 5×10^4 KB cells were put in each well. The cells were cultured for 24 hours to allow the cells to be absorbed well, and then 2 μM Ce4-RRW was added and cultured for 4 hours, followed by washing three times. Thereafter, after replacing the existing medium with fresh medium including 100 nM LysoTracker Blue DND-22 dye, the cells were cultured for 45 minutes. Fluorescent images of the Ce4-RRW (λEx. 405 nm, λEm. 625˜754 nm) and LysoTracker (λEx. 405 nm, λEm. 411˜497 nm) were obtained for these samples using confocal microscopy.

[11] = test system: MDA-MB-468 cells; settings: 0~10 μM, dark
Description: In the dark state without light, the L-EGFR conjugate of the present invention was added to MDA-MB-468 cells at a concentration of 0˜10 μM and cytotoxicity was evaluated.

[12] = test system: MDA-MB-468 cells; test: Cell absorption and fluorescence activity, confocal laser microscope; type: cell-based, human; settings: 2 μM
Description: as §1
L-EGFR conjugate was treated at a concentration of 2 μM and was cultured for 4 hours, followed by washing three times.

[13] = test system: MDA-MB-231 cells; test: as above; type: cell-based, human; settings: 2 μM
Description: as §1

| Compound | Increase of singlet oxygen generation [1] [times] | Generation of singlet oxygen in the quenched state [1] | Increase of fluorescence intensity by DTT treatment [2] [times] | Cells alive after photodynamic therapy [3] | Intracellular fluorescence signal / cell entry [5] | Fluorescence image without washing [7] | Increase of fluorescence versus initial fluorescence after trypsin treatment [8] | Effect of serum protein on fluorescence of the conjugate [9] | other results |
| --- | --- | --- | --- | --- | --- | --- | --- | --- | --- |
| C=Cc1c(C)c2cc3nc(c(C)c4[nH]c(cc5nc(cc1[nH]2)C(C)=C5CC)c(C)c4C(=O)O)[C@@H](CCC(=O)NCCOCCOCC(=O)N[C@H]1CSSC[C@@H](C(=O)N[C@@H](Cc2ccc(O)cc2)C(=O)N[C@@H](Cc2c[nH]cn2)C(=O)N[C@@H](Cc2c[nH]c4ccccc24)C(=O)N[C@@H](Cc2ccc(O)cc2)C(=O)NCC(=O)N[C@@H](Cc2ccc(O)cc2)C(=O)N[C@H](C(=O)N2CCC[C@H]2C(=O)N[C@@H](CCC(N)=O)C(=O)N[C@@H](CC(N)=O)C(=O)N[C@H](C(=O)N[C@H](C(=O)O)[C@@H](C)CC)C(C)C)[C@@H](C)O)NC1=O)[C@@H]3C [C-EGFR] | 5 | inhibited | 3.4 | at least 70% | fluorescence signals were hardly exhibited | fluorescence signal generation is inhibited from outside the cell |  |  | Time to fluorescence recovery after the start of the reaction [2]: ≤ 30 min; Intracellular fluorescence signal [4]: strong fluorescence signals; Intracellular location (LysoTracker co-staining) [4]: migrated into the lysosomes; Cytotoxicity without light irradiation [6]: did not show cytotoxicity |
| C=Cc1c(C)c2cc3nc(c(C)c4nc(cc5[nH]c(cc1[nH]2)c(C)c5CC)C(C)=C4C(=O)O)[C@@H](CCC(=O)N[C@@H](CCCNC(=N)N)C(=O)N[C@@H](CCCNC(=N)N)C(=O)N[C@@H](Cc1c[nH]c2ccccc12)C(=O)N[C@@H](Cc1c[nH]c2ccccc12)C(=O)N[C@@H](Cc1c[nH]c2ccccc12)C(=O)O)[C@@H]3C [Ce4-RRWWW] (X1-RRWWW-OH) |  |  |  |  |  |  | 4.3 times |  |  |
| C=Cc1c(C)c2cc3nc(c(C)c4nc(cc5[nH]c(cc1[nH]2)c(C)c5CC)C(C)=C4C(=O)O)[C@@H](CCC(=O)N[C@@H](CCCNC(=N)N)C(=O)N[C@@H](CCCNC(=N)N)C(=O)N[C@@H](Cc1c[nH]c2ccccc12)C(=O)N[C@@H](Cc1c[nH]c2ccccc12)C(=O)O)[C@@H]3C [Ce4-RRWW] |  |  |  |  |  |  | about 1.6 times |  |  |
| C=Cc1c(C)c2cc3nc(c(C)c4nc(cc5[nH]c(cc1[nH]2)c(C)c5CC)C(C)=C4C(=O)O)[C@@H](CCC(=O)N[C@@H](CCCNC(=N)N)C(=O)N[C@@H](CCCNC(=N)N)C(=O)N[C@@H](Cc1c[nH]c2ccccc12)C(=O)O)[C@@H]3C [Ce4-RRW] |  |  |  |  |  |  |  | did not affect the fluorescence | Intracellular fluorescence signal [10]: strong fluorescence signal; Intracellular location (LysoTracker co-staining) ([10]; 4 hours): located in the lysosome |
| C=Cc1c(C)c2cc3nc(c(C)c4[nH]c(cc5nc(cc1[nH]2)C(C)=C5CC)c(C)c4C(=O)O)[C@@H](CCC(=O)NCCOCCOCC(=O)N[C@@H](CSSC[C@H](N)C(=O)N[C@@H](Cc1ccc(O)cc1)C(=O)N[C@@H](Cc1c[nH]cn1)C(=O)N[C@@H](Cc1c[nH]c2ccccc12)C(=O)N[C@@H](Cc1ccc(O)cc1)C(=O)NCC(=O)N[C@@H](Cc1ccc(O)cc1)C(=O)N[C@H](C(=O)N1CCC[C@H]1C(=O)N[C@@H](CCC(N)=O)C(=O)N[C@@H](CC(N)=O)C(=O)N[C@H](C(=O)N[C@H](C(=O)O)[C@@H](C)CC)C(C)C)[C@@H](C)O)C(=O)O)[C@@H]3C [L-EGFR] | 2 | suppressed | 2.5 | at least 70% | did not enter the cell even after culturing for 4 hours |  |  | did not affect the fluorescence intensity | Cytotoxicity without light irradiation [11]: did not show cytotoxicity; Fluorescence recovered within 5 minutes after the start of the reaction [2]: at least 90%; Fluorescence signal ([12]; 30 minutes): strong fluorescence signal on the cell surface; Intracellular location (LysoTracker co-staining) ([12]; 4 hours): activated in the lysosome; Intracellular fluorescence signal with culture time ([13]; 30 minutes to 4 hours): fluorescence intensity was increased with increasing culture time; Intracellular fluorescence signal ([13]; first 30 minutes): fluorescence was almost not observed |
| chlorin e4 [free photosensitizer, reference compound] |  |  |  |  |  | position of cancer cells cannot be distinguished |  |  |  |
